This is an account of results in patent US20230416275A1, “MODULATORS OF CYSTIC FIBROSIS TRANSMEMBRANE CONDUCTANCE REGULATOR” (VERTEX PHARMACEUTICALS INCORPORATED, priority 2020, published 2023).

Test [1] concerns the target CFTR-mediated chloride transport in human intestinal epithelial enteroid cells (Homo sapiens, UniProt P13569). Briefly: Membrane potential dye, Enteroid Assay A. It is filed as cell-based. The settings on record: for Ent. A Max Activity (%): % of chloride transport of triple combination control (3 μM N-[(6-amino-2-pyridyl)sulfonyl]-6-(3-fluoro-5-isobutoxy-phenyl)-2-[(4S)-2,2,4-trimethylpyrrolidin-1-yl]pyridine-3-carboxamide, 3 μM tezacaftor, 300 nM acute ivacaftor); for EC50: enteroid cells, 18-24 hours incubation, acute 10 μM forskolin and 300 nM ivacaftor, read-out: Ent. A EC50. As to the method:
Base medium (ADF+++) consisted of Advanced DMEM/Ham's F12, 2 mM Glutamax, 10 mM HEPES, […] penicillin/streptomycin.
Intestinal enteroid maintenance medium (IEMM) consisted of ADF+++, 1×B27 supplement, 1×N2 supplement, 1.25 mM N-acetyl cysteine, 10 mM Nicotinamide, 50 ng/mL hEGF, 10 nM Gastrin, 1 μg/mL hR-spondin-1, 100 ng/mL hNoggin, TGF-b type 1 inhibitor A-83-01, 100 μg/mL Primocin, 10 μM P38 MAPK inhibitor SB202190.
Bath 1 Buffer consisted of 1 mM MgCl2, 160 mM NaCl, 4.5 mM KCl, 10 mM HEPES, 10 mM Glucose, 2 mM CaCl2.
Chloride Free Buffer consisted of 1 mM Magnesium Gluconate, 2 mM Calcium Gluconate, 4.5 mM Potassium Gluconate, 160 mM Sodium Gluconate, 10 mM HEPES, 10 mM Glucose.
Bath1 Dye Solution consisted of Bath 1 Buffer, 0.04% Pluronic F127, 20 μM Methyl Oxonol, 30 μM CaCCinh-A01, 30 μM Chicago Sky Blue.
Chloride Free Dye Solution consisted of Chloride Free Buffer, 0.04% Pluronic F127, 20 μM Methyl Oxonol, 30 μM CaCCinh-A01, 30 μM Chicago Sky Blue.
Chloride Free Dye Stimulation Solution consisted of Chloride Free Dye Solution, 10 μM forskolin, 100 μM IBMX, and 300 nM Compound III.
Human intestinal epithelial enteroid cells were obtained from the Hubrecht Institute for Developmental Biology and Stem Cell Research, Utrecht, The Netherlands and expanded in T-Flasks as previously described (Dekkers J F, Wiegerinck C L, de Jonge H R, Bronsveld I, Janssens H M, de Winter-de Groot K M, Brandsma A M, de Jong N W M, Bijvelds M J C, Scholte B J, Nieuwenhuis E E S, van den Brink S, Clevers H, van der Ent C K, Middendorp S and M Beekman J M. A functional CFTR assay using primary cystic fibrosis intestinal organoids. Nat Med. 2013 July; 19(7):939-45).
c. Enteroid Cell Harvesting and Seeding
Cells were recovered in cell recovery solution, collected by centrifugation at 650 rpm for 5 minutes at 4° C., resuspended in TrypLE and incubated for 5 minutes at 37° C. Cells were then collected by centrifugation at 650 rpm for 5 minutes at 4° C. and resuspended in IEMM containing 10 μM ROCK inhibitor (RI). The cell suspension was passed through a 40 μm cell strainer and resuspended at 1×10^6 cells/mL in IEMM containing 10 μM RI. Cells were seeded at 5000 cells/well into multi-well plates and incubated for overnight at 37° C., 95% humidity and 5% CO2 prior to assay.
d. Membrane Potential Dye, Enteroid Assay A
Enteroid cells were incubated with test compound in IEMM for 18-24 hours at 37° C., 95% humidity and 5% CO2. […] Briefly, cells were washed 5 times in Bath 1 Buffer. Bath 1 Dye Solution was added, and the cells were incubated for 25 minutes at room temperature. Following dye incubation, cells were washed 3 times in Chloride Free Dye Solution. Chloride transport was initiated by addition of Chloride Free Dye Stimulation Solution and the fluorescence signal was read for 15 minutes. […] Chloride transport was then expressed as a percentage of the chloride transport following treatment with 3 μM N-[(6-amino-2-pyridyl)sulfonyl]-6-(3-fluoro-5-isobutoxy-phenyl)-2-[(4S)-2,2,4-trimethylpyrrolidin-1-yl]pyridine-3-carboxamide, 3 μM (R)-1-(2,2-difluorobenzo[d][1,3]dioxol-5-yl)-N-(1-(2,3-dihydroxypropyl)-6-fluoro-2-(1-hydroxy-2-methylpropan-2-yl)-1H-indol-5-yl)cyclopropanecarboxamide and 300 nM acute N-[2,4-bis(1,1-dimethylethyl)-5-hydroxyphenyl]-1,4-dihydro-4-oxoquinoline-3-carboxamide triple combination control (% Activity).

Test [2] deals with T1, F508del in NIH 3T3 cells (Homo sapiens, UniProt P13569, DEL508-508).
T1 construct: expressed in transfected cells
T1 sequence (P13569 with tags, fused parts or gaps DEL508-508): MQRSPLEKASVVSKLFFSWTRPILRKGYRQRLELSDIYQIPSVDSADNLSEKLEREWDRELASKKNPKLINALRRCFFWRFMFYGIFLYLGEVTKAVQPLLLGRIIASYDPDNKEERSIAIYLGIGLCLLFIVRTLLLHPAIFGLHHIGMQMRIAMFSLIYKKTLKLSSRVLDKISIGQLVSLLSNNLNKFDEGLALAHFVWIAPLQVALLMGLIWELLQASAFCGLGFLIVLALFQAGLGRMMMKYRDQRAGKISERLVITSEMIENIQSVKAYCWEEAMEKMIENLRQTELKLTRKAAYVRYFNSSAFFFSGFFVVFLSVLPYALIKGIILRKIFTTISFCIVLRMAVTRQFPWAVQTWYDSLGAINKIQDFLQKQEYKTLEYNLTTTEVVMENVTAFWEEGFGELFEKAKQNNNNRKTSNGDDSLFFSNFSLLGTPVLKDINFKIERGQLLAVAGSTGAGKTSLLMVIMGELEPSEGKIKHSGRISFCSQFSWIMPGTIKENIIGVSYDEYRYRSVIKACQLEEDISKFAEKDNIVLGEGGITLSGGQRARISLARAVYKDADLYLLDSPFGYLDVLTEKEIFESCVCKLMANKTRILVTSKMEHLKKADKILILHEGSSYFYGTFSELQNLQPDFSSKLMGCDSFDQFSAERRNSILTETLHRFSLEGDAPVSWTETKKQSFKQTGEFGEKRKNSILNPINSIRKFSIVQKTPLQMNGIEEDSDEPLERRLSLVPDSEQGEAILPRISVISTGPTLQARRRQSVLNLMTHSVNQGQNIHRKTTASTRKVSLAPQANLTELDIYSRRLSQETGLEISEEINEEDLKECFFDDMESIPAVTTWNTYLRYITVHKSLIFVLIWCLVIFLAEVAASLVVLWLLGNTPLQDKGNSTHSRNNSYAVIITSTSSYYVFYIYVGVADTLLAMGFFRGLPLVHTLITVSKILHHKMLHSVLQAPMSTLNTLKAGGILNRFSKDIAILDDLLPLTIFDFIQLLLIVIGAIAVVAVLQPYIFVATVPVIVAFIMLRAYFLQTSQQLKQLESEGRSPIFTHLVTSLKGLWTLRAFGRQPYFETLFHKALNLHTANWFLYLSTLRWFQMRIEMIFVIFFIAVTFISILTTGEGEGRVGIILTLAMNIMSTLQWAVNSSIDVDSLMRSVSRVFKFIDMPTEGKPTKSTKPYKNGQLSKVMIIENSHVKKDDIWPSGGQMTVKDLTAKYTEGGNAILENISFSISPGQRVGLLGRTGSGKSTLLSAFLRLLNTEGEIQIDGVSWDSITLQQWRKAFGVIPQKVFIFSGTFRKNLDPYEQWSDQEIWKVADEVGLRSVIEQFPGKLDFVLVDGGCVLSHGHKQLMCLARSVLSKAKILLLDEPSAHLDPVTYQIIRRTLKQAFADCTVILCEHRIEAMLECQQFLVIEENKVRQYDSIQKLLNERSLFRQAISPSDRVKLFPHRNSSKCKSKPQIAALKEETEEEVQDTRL
Briefly: 3T3 assay: membrane potential optical assay for F508del correction. It is filed as cell-based, mouse. The note with it: for EC50: F508del NIH 3T3 cells, compound incubation 18-24 hours at 37° C., forskolin activation, read-out: 3T3 EC50; for Emax: NIH3T3, F508del NIH 3T3 cells, efficacy compared to lumacaftor in combination with acutely added 300 nM Ivacaftor, read-out: 3T3 Max Activity (%). The text has this: a. Membrane Potential Optical Methods for Assaying F508del Modulation Properties of Compounds
The assay utilizes fluorescent voltage sensing dyes to measure changes in membrane potential using a fluorescent plate reader (e.g., FLIPR III, Molecular Devices, Inc.) as a readout for increase in functional F508del in NIH 3T3 cells. The driving force for the response is the creation of a chloride ion gradient in conjunction with channel activation by a single liquid addition step after the cells have previously been treated with compounds and subsequently loaded with a voltage sensing dye.
b. Identification of Corrector Compounds
To identify correctors of F508del, a single-addition HTS assay format was developed. This HTS assay utilizes fluorescent voltage sensing dyes to measure changes in membrane potential on the FLIPR III as a measurement for increase in gating (conductance) of F508del in F508del NIH 3T3 cells. The F508del NIH 3T3 cell cultures were incubated with the corrector compounds at a range of concentrations for 18-24 hours at 37° C., and subsequently loaded with a redistribution dye. The driving force for the response is a Cl^− ion gradient in conjunction with channel activation with forskolin in a single liquid addition step using a fluorescent plate reader such as FLIPR III.
Bath Solution #1: (in mM) NaCl 160, KCl 4.5, CaCl2 2, MgCl2 1, HEPES 10, pH 7.4 with NaOH.
Chloride-free bath solution: Chloride salts in Bath Solution #1 (above) are substituted with gluconate salts.
NIH3T3 mouse fibroblasts stably expressing F508del are used for optical measurements of membrane potential. The cells are maintained at 37° C. in 5% CO2 and 90% humidity in Dulbecco's modified Eagle's medium supplemented with 2 mM glutamine, 10% fetal bovine serum, 1×NEAA, b-ME, 1× pen/strep, and 25 mM HEPES in 175 cm^2 culture flasks. For all optical assays, the cells were seeded at ˜20,000/well in 384-well Matrigel-coated plates. For the correction assays, the cells are cultured at 37° C. with and without compounds for 16-24 hours.

Sequence of CFTR-mediated chloride transport in human intestinal epithelial enteroid cells (P13569 with tags, fused parts or gaps DEL508-508): as above

What is called EC50 is the concentration needed to bring the measured effect to its halfway point. Turning to `Cc1cccc(C)c1-c1cc2nc(n1)NS(=O)(=O)c1cccc(c1)NC(=O)[C@@H]1C[C@@H](CN(CCC(C)(C)C)C1)O2` [Compound 5, (3S,7R)-5-(3,3-Dimethylbutyl)-19-(2,6-dimethylphenyl)-2-oxa-15λ^6-thia-5,9,16,18,21-pentaazatetracyclo[15.3.1.13,7.110,14]tricosa-1(20),10,12,14(22),17(21),18-hexaene-8,15,15-trione], in test [1], the “Ent. A Max Activity (%)” value is recorded as “+++ (+++ is >60%)” and the EC50 was below 1000 nM. Further, in test [2], the 50% effective concentration (EC50) is below 1000 nM and the Emax was above 60%.
As to `COCCN1C[C@@H]2C[C@H](C1)C(=O)Nc1cccc(c1)S(=O)(=O)Nc1nc(cc(-c3c(C)cccc3C)n1)O2` [Compound 7, (3S,7R)-19-(2,6-Dimethylphenyl)-5-(2-methoxyethyl)-2-oxa-15λ^6-thia-5,9,16,18,21-pentaazatetracyclo[15.3.1.13,7.110,14]tricosa-1(21),10(22),11,13,17,19-hexaene-8,15,15-trione], in test [1], the “Ent. A Max Activity (%)” value is reported as “+++ (+++ is >60%)” and the concentration giving a half-maximal response (EC50) was in the range of 1000 to 3000 nM. Besides, in test [2], the EC50 was below 1000 nM and the Emax is above 60%.
In the case of `Cc1cccc(C)c1-c1cc2nc(n1)NS(=O)(=O)c1cccc(c1)NC(=O)[C@@H]1C[C@@H](CN(C(=O)OCCC(C)C)C1)O2` [Compound 8, 3-Methylbutyl (3S,7R)-19-(2,6-dimethylphenyl)-8,15,15-trioxo-2-oxa-15λ^6-thia-5,9,16,18,21-pentaazatetracyclo[15.3.1.13,7.110,14]tricosa-1(21),10(22),11,13,17,19-hexaene-5-carboxylate], in test [1], the “Ent. A Max Activity (%)” value is given as “+++ (+++ is >60%)”. For the same compound, the concentration giving a half-maximal response (EC50) in test [1] and in test [2] was below 1000 nM each time.
`Cc1cccc(C)c1-c1cc2nc(n1)NS(=O)(=O)c1cccc(c1)NC(=O)[C@@H]1C[C@@H](CN(C3CCCCC3)C1)O2` [Compound 10, (3S,7R)-5-cyclohexyl-19-(2,6-dimethylphenyl)-2-oxa-15λ^6-thia-5,9,16,18,21-pentaazatetracyclo[15.3.1.13,7.110,14]tricosa-1(21),10(22),11,13,17,19-hexaene-8,15,15-trione]: in test [1], the “Ent. A Max Activity (%)” value is “++ (++ is 30-60%)” and the 50% effective concentration (EC50) was in the range of 1000 to 3000 nM. Besides, in test [2], the concentration giving a half-maximal response (EC50) was below 1000 nM.
For `Cc1cccc(C)c1-c1cc2nc(n1)NS(=O)(=O)c1cccc(c1)NC(=O)[C@H]1C[C@H](CN(CCC(C)(C)C)C1)O2` [Compound 11, (3R,7S)-5-(3,3-Dimethylbutyl)-19-(2,6-dimethylphenyl)-2-oxa-15λ^6-thia-5,9,16,18,21-pentaazatetracyclo[15.3.1.13,7.110,14]tricosa-1(21),10(22),11,13,17,19-hexaene-8,15,15-trione], the “Ent. A Max Activity (%)” value in test [1] is given as “+ (+ is <30%)”. In addition, in test [2], the concentration giving a half-maximal response (EC50) was below 1000 nM and the Emax is above 60%.
In the case of `Cc1cccc(C)c1-c1cc2nc(n1)NS(=O)(=O)c1cccc(c1)NC(=O)[C@H]1C[C@@H](CN(CCC(C)(C)C)C1)O2` [Compound 12, (3S,7S)-5-(3,3-Dimethylbutyl)-19-(2,6-dimethylphenyl)-2-oxa-15λ^6-thia-5,9,16,18,21-pentaazatetracyclo[15.3.1.13,7.110,14]tricosa-1(21),10(22),11,13,17,19-hexaene-8,15,15-trione], in test [1], the “Ent. A Max Activity (%)” value is “++ (++ is 30-60%)” and the EC50 lay within 1000 to 3000 nM. Moreover, in test [2], the EC50 was below 1000 nM and the Emax is above 60%.
The matching figures for `Cc1cccc(C)c1-c1cc2nc(n1)NS(=O)(=O)c1cccc(n1)NC(=O)C1CC(CN(CCC(C)(C)C3CC3)C1)O2` (stereo not drawn) [Compound 15, 5-(3-Cyclopropyl-3-methylbutyl)-19-(2,6-dimethylphenyl)-2-oxa-15λ^6-thia-5,9,16,18,21,22-hexaazatetracyclo[15.3.1.13,7.110,14]tricosa-1(21),10,12,14(22),17,19-hexaene-8,15,15-trione]: “++ (++ is 30-60%)”, below 1000 nM, below 1000 nM and above 60%.
For `Cc1cccc(C)c1-c1cc2nc(n1)NS(=O)(=O)c1cccc(c1)NC(=O)[C@@H]1C[C@@H](CN(CCCCC(C)(C)C)C1)O2` [Compound 21] the same measures were “++ (++ is 30-60%)”, below 1000 nM, below 1000 nM and above 60%.
The matching figures for `Cc1cccc(C)c1-c1cc2nc(n1)NS(=O)(=O)c1cccc(c1)NC(=O)[C@@H]1C[C@@H](CN(CC(C3CC3)C3CC3)C1)O2` [Compound 24]: “++ (++ is 30-60%)”, below 1000 nM, below 1000 nM and above 60%.
On to `Cc1cccc(C)c1-c1cc2nc(n1)NS(=O)(=O)c1cccc(c1)NC(=O)[C@@H]1C[C@@H](CN(CC34CC(C3)C4)C1)O2` [Compound 25], for which, in test [1], the “Ent. A Max Activity (%)” value is reported as “++ (++ is 30-60%)” and the EC50 was below 1000 nM. For the same compound, in test [2], the EC50 was below 1000 nM and the Emax is above 60%.
As to `Cc1cccc(C)c1-c1cc2nc(n1)NS(=O)(=O)c1cccc(c1)NC(=O)[C@@H]1C[C@@H](CN(CCC3(C(F)(F)F)CC3)C1)O2` [Compound 27], in test [1], the “Ent. A Max Activity (%)” value was “+++ (+++ is >60%)” and the concentration giving a half-maximal response (EC50) is below 1000 nM. In addition, in test [2], the EC50 is below 1000 nM and the Emax was above 60%.
Consider `Cc1cccc(C)c1-c1cc2nc(n1)NS(=O)(=O)c1cccc(c1)NC(=O)[C@@H]1C[C@@H](CN(CCC3CC3)C1)O2` [Compound 28], for which, in test [1], the “Ent. A Max Activity (%)” value was “++ (++ is 30-60%)” and the EC50 was below 1000 nM. Besides, in test [2], the concentration giving a half-maximal response (EC50) is below 1000 nM and the Emax is above 60%.
